Experimental data taken from patent US8785638B2, “Thieno [2, 3-B] pyridine derivatives as viral replication inhibitors” (Katholieke Universiteit Leuven, priority 2009, dated 2014).
Read-outs that look alike come from different tables or passages of the source.

Legend:
[1] = biological target: LEDGF/p75-HIV-1 integrase interaction (Human immunodeficiency virus type 1 group M subtype B (isolate HXB2) (HIV-1), UniProt P04585); assay: AlphaScreen assay of LEDGF-integrase interaction inhibition; assay type: binding
Experimental: Alphascreen Assay to Measure the LEDGF-Integrase Interaction Inhibitory Activity of Compounds of the Invention
The AlphaScreen assay was performed according to the manufacturer's protocol (Perkin Elmer, Benelux). Reactions were performed in 25 μl final volume in 384-well Optiwell™ microtiter plates (Perkin Elmer). The reaction buffer contained 25 mM Tris-HCl (pH 7.4), 150 mM NaCl, 1 mM MgCl2, 0.01% (v/v) Tween-20 and 0.1% (w/v) bovine serum albumin. His6-tagged integrase (300 nM final concentration) was incubated with the compounds for 30 min at 4° C. The compounds were added at varying concentrations spanning a wide range from 0.1 up to 100 μM. Afterwards 100 nM flag-LEDGF/p75 was added and incubation was prolonged for an additional hour at 4° C. Subsequently 5 μl of Ni-chelate-coated acceptor beads and 5 μl anti-flag donor beads were added to a final concentration of 20 μg/ml of both beads. Proteins and beads were incubated for 1 h at 30° C. in order to allow association to occur. Exposure of the reaction to direct light was omitted as much as possible and the emission of light from the acceptor beads was measured in the EnVision plate reader (Perkin Elmer, Benelux) and analyzed using the EnVision manager software. IN/DNA binding was analyzed in a similar setting using His6-tagged integrase (1 μM final concentration) and an oligodeoxynucleotide mimicking the IN ELISA oligonucleotide substrate (30 nM final concentration). Counterscreens with JPO2 or PogZ, respectively, were essentially performed as described previously.
His6-tagged HIV-1 integrase, 3xflag-tagged LEDGF/p75, MBP-JPO2 and MBP-PogZ were purified for AlphaScreen applications as described previously 23,25,56.

[2] = system: HIV-1 (IIIB), HIV-1 (NL4.3); assay: microbe, parasite or virus in culture; assay type: cell-based; details: for EC50: Human immunodeficiency virus 1, IIIB, MT4, MT-4 cells, 50% protection against HIV-induced cytopathogenic effect, MTT; for SI: selectivity index, ratio of CC50 to EC50
Experimental: (§1) A rapid and automated assay procedure was used for the in vitro evaluation of anti-HIV agents. An HTLV-1 transformed T4-cell line MT-4, which was previously shown to be highly susceptible to and permissive for HIV infection, served as the target cell line. Inhibition of the HIV-induced cytopathogenic effect was used as the end point. The viabitlity of both HIV- and mock-infected cells was assessed spectrophotometrically via in situ reduction of 3-(4,5-dimethylthiazol-2-yl)-2,5-diphenyltetrazolium bromide (MTT). The 50% cytotoxic concentration (CC50 in μM or μg/ml) was defined as the concentration of compound that reduced the absorbance of the mock-infected control sample by 50%. The percent protection achieved by the compound in HIV-infected cells was calculated by the following formula:
(§2) [formula] whereby (ODT)HIV is the optical density measured with a given concentration of the test compound in HIV-infected cells; (ODC)HIV is the optical density measured for the control untreated HIV-infected cells; (ODC)MOCK is the optical density measured for the control untreated mock-infected cells; all optical density values were determined at 540 nm. The dose achieving 50% protection according to the above formula was defined as the 50% inhibitory concentration (EC50 in μM or μg/ml). The ratio of CC50 to EC50 was defined as the selectivity index (SI). […] Examples of inhibition of cell proliferation by particular compounds of the invention can be found by looking at the respective CC50 values in the MT-4 cell line. Cells:
(§3) MT-4 cells (Miyoshi et al., 1982) were grown and maintained in RPMI 1640 medium supplemented with 10% heat-inactivated fetal calf serum, 2 mM I-glutamine, 0.1% sodium bicarbonate, and 20 μg of gentamicin per ml. Alternatively, the MT-4 cells may also be grown in RPMI 1640 medium supplemented with 10% FCS and 20 μg/ml of gentamicin (RPMI-complete).
The HIV-1 (IIIB) strain (Popovic et al., 1984) as well as the HIV-1 (NL4.3) strain (Adachi et al., J. Virol. 59, 284-291 (1986)) were used.

[3] = Cytotoxicity in mock-infected MT-4 cells (MTT); assay type: cell-based; details: human, 50% cytotoxic concentration
Experimental: as §1, §2, §3

[4] = His6-tagged integrase 300 nM, flag-LEDGF/p75 100 nM, read-out: Alphascreen IC50

| Compound | IC50 [1, 4] | EC50 [2] | SI [2] | CC50 [3] | IC50 [1] |
| --- | --- | --- | --- | --- | --- |
| Cc1ccc(-c2c(CC(=O)O)c(C)nc3sc4c(c23)CCC4)cc1 [Cpd 101, [2-Methyl-4-p-tolyl-6,7-dihydro-5H-cyclopenta[4,5]thieno[2,3-b]pyridin-3-yl]acetic acid] | 55.3 µM | 64.1 µM | >2 | > 125 µM |  |
| CCCC(C(=O)O)c1c(C)nc2sc3c(c2c1-c1ccc2c(c1)OCO2)CCCC3 (centres unmarked) [Cpd 146, 2-[2-Methyl-4-(benzo[d][1,3]dioxol-5-yl)-5,6,7,8-tetrahydro[1]benzothieno[2,3-b]pyridin-3-yl]pentanoic acid] | 4.76 µM | 2.98 µM | 42 | 124 µM |  |
| CCCC(C(=O)O)c1c(C)nc2sc3c(c2c1-c1cccc(C)c1)CCCC3 (centres unmarked) [Cpd 141, 2-[2-Methyl-4-(m-tolyl)-5,6,7,8-tetrahydro[1]benzothieno[2,3-b]pyridin-3-yl]pentanoic acid] | 23.7 µM | 14.8 µM | 4 | 55.5 µM |  |
| COCC(C(=O)O)c1c(C)nc2sc3c(c2c1-c1ccc(C)cc1)CCC3 (centres unmarked) [Cpd 125, 2-[2-Methyl-4-(p-tolyl)-6,7-dihydro-5H-cyclopenta[4,5]thieno[2,3-b]pyridin-3-yl]-3-methoxypropanoic acid] | 77 µM | 66.5 µM | >2 | > 125 µM |  |
| CCCC(c1c(C)nc2sc3c(c2c1-c1ccc(C)cc1)CCCC3)C1SC(=O)NC1=O (centres unmarked) [Cpd 182] |  | > 27.3 µM |  | 27.3 µM | ~80 µM |
| CCCC(C(=O)O)c1c(C)nc2sc3c(c2c1-c1ccc(C(F)(F)F)cc1)CCC3 (centres unmarked) [Cpd 116, 2-[2-Methyl-4-(4-trifluoromethylphenyl)-6,7-dihydro-5H-cyclopenta[4,5]thieno[2,3-b]pyridin-3-yl]pentanoic acid] | 0.62 µM | 1.21 µM | 12 | 14.7 µM |  |
| CCCC(C(=O)O)c1c(C)nc2sc(CC)c(C)c2c1-c1ccc(C)cc1 (centres unmarked) [Cpd 111, 2-(2-Ethyl-3,6-dimethyl-4-p-tolylthieno[2,3-b]pyridin-5-yl)pentanoic acid] |  | 1.28 µM | 43 | 54.4 µM |  |
| CCCC(C(=O)O)c1c(C)nc2sc3c(c2c1-c1ccco1)CCC3 (centres unmarked) [Cpd 129, 2-[2-Methyl-4-(2-furyl)-6,7-dihydro-5H-cyclopenta[4,5]thieno[2,3-b]pyridin-3-yl]pentanoic acid] | 48 µM | > 130 µM |  | 130 µM |  |
| CCCC(C(=O)O)c1c(C)nc2sc3c(c2c1-c1ccc(CC)cc1)CCC3 (centres unmarked) [Cpd 117, 2-[2-Methyl-4-(4-ethylphenyl)-6,7-dihydro-5H-cyclopenta[4,5]thieno[2,3-b]pyridin-3-yl]pentanoic acid] | 0.78 µM | 0.53 µM | 107 | 54.3 µM |  |
| C#CCC(C(=O)O)c1c(C)nc2sc3c(c2c1-c1ccc(C)cc1)CCCC3 (centres unmarked) [Cpd 159, 2-[2-Methyl-4-(p-tolyl)-5,6,7,8-tetrahydro[1]benzothieno[2,3-b]pyridin-3-yl]-pent-4-yn-oic acid] | 13.3 µM | 7.54 µM | 13 | 99.5 µM |  |
| CCCC(C(=O)O)c1c(C)nc2sc3c(c2c1-c1cccc(OC)c1)CCCC3 (centres unmarked) [Cpd 144, 2-[2-Methyl-4-(m-anisyl)-5,6,7,8-tetrahydro[1]benzothieno[2,3-b]pyridin-3-yl]pentanoic acid] |  | 20 µM | 3 | 63 µM | 6.64 µM |
| Cc1ccc(-c2c(C(CC(C)C)C(=O)O)c(C)nc3sc4c(c23)CCCC4)cc1 (centres unmarked) [Cpd 136, 2-[2-Methyl-4-(p-tolyl)-5,6,7,8-tetrahydro[1]benzothieno[2,3-b]pyridin-3-yl]-4-methylpentanoic acid] | 4.34 µM | 1.02 µM | 85 | 86.4 µM |  |
| CCCC(C(=O)O)c1c(C)nc2sc3c(c2c1-c1cccs1)CCC3 (centres unmarked) [Cpd 130, 2-[2-Methyl-4-(2-thienyl)-6,7-dihydro-5H-cyclopenta[4,5]thieno[2,3-b]pyridin-3-yl]pentanoic acid] | 30.6 µM | 29.6 µM | 4 | 130 µM |  |
| CCC[C@@H](C(=O)O)c1c(C)nc2sc3c(c2c1-c1ccc(C)cc1)CCCC3 [Cpd 115, (2R)-[2-Methyl-4-p-tolyl-5,6,7,8-tetrahydro[1]benzothieno[2,3-b]pyridin-3-yl]pentanoic acid] | 17.6 µM | 5.03 µM | 26 | 131 µM |  |
| CCCC(C(=O)O)c1c(C)nc2sc3c(c2c1-c1ccc(C)cc1)CCOC3 (centres unmarked) [Cpd 133, 2-[2-Methyl-4-(p-tolyl)-5,8-dihydro-6H-7-oxa-9-thia-1-aza-fluoren-3-yl]pentanoic acid] | 7.8 µM | 18 µM | 8 | 165 µM |  |
| CCCC(C(N)=O)c1c(C)nc2sc3c(c2c1-c1ccc(C)cc1)CCCC3 (centres unmarked) [Cpd 167, 2-[2-Methyl-4-p-tolyl-5,6,7,8-tetrahydro[1]benzothieno[2,3-b]pyridin-3-yl]pentanamide] | 63.7 µM | > 26.1 µM |  | 26.1 µM |  |
| CCCC(C(=O)O)c1c(-c2ccccc2)nc2sc3c(c2c1-c1ccc(C)cc1)CCC3 (centres unmarked) [Cpd 126, 2-[2-phenyl-4-p-tolyl-6,7-dihydro-5H-cyclopenta[4,5]thieno[2,3-b]pyridin-3-yl]pentanoic acid] | 56.3 µM | > 30.1 µM |  | 30.1 µM |  |
| CCCC(C(=O)O)c1c(C)nc2sc3c(c2c1-c1ccc(C)cc1)CCCCC3 (centres unmarked) [Cpd 135] |  | 42.4 µM | 3 | 109 µM | 55.8 µM |
| CCCC(C(=O)O)c1c(C)nc2sc3c(c2c1-c1ccc(OC)c(OC)c1)CCCC3 (centres unmarked) [Cpd 145, 2-[2-Methyl-4-(3,4-dimethoxyphenyl)-5,6,7,8-tetrahydro[1]benzothieno[2,3-b]pyridin-3-yl]pentanoic acid] | 29.6 µM | 123 µM | >1 | > 125 µM |  |
| Cc1ccc(-c2c(C(Cc3ccccc3)C(=O)O)c(C)nc3sc4c(c23)CCC4)cc1 (centres unmarked) [Cpd 134, 2-[2-Methyl-4-(4-methylphenyl)-6,7-dihydro-5H-cyclopenta[4,5]thieno[2,3-b]pyridin-3-yl]-3-phenylpropanoic acid] | 84.1 µM | > 114 µM |  | 114 µM |  |
| CCCC(C(=O)O)c1c(C)nc2sc(C)cc2c1-c1ccc(C)cc1 (centres unmarked) [Cpd 110, 2-(2,6-Dimethyl-4-p-tolylthieno[2,3-b]pyridin-5-yl)pentanoic acid] | 4.31 µM | 0.76 µM | 95 | 72.2 µM |  |
| CCCC(C(=O)O)c1c(C)nc2sc3c(c2c1-c1ccccc1)CCC3 (centres unmarked) [Cpd 107, 2-[2-Methyl-4-phenyl-6,7-dihydro-5H-cyclopenta[4,5]thieno[2,3-b]pyridin-3-yl]pentanoic acid] | 34.7 µM | 13.2 µM | 8 | 75.7 µM |  |
| Cc1ccc(-c2c(C(CCCC(F)(F)F)C(=O)O)c(C)nc3sc4c(c23)CCCC4)cc1 (centres unmarked) [Cpd 147, 2-[2-Methyl-4-(p-tolyl)-5,6,7,8-tetrahydro[1]benzothieno[2,3-b]pyridin-3-yl]-6,6,6-trifluorohexanoic acid] | 23.7 µM | 8.79 µM | 5 | 41.5 µM |  |
